Experimental data: PMC10218303, “Novel Polymyxin-Inspired Peptidomimetics Targeting the SARS-CoV-2 Spike:hACE2 Interface” (International Journal of Molecular Sciences, 2023)
Bridge positions count the residues as written; N and C are the ends. Square brackets hold non-standard residues; d marks the D form. Peptide text beside a SMILES is read from it. Dab = NCC[C@H](N)C(=O)O

Key:
in vitro [1] = conditions: human
in vitro [2] = conditions: human; remark: listed apart in the source
[3] = system: SARS-CoV-2 (strain Delta); conditions: for IC50: strain Delta, 2 h
[4] = system: SARS-CoV-2 (strain 20A.EU2); conditions: strain 20A.EU2, 2 h

CC[C@H](C)[C@@H]1NC(=O)[C@@H](NC(=O)[C@H](CCN)NC(=O)[C@@H](NC(=O)[C@H](CC(C)C)NC(C)=O)[C@@H](C)O)CCNC(=O)[C@H](Cn2cc(CC(=O)N[C@@H](CCN)C(=O)N[C@H]3CCNC(=O)[C@H]([C@@H](C)O)NC(=O)[C@H](CCN)NC(=O)[C@H](Cc4c[nH]c5ccccc45)NC(=O)[C@H](CC(C)C)NC(=O)[C@@H](Cc4ccccc4)NC(=O)[C@H](Cc4ccc(O)cc4)NC3=O)nn2)NC(=O)[C@H](CCN)NC(=O)[C@H](CCN)NC(=O)[C@H](Cc2ccc(O)cc2)NC(=O)[C@@H](Cc2ccccc2)NC1=O [dimer 3]
CC50 (in vitro [1]): > 50 µM
CC50 (in vitro [2]): > 50 µM
IC50 [3]: > 50 µM
IC50 [4]: > 50 µM

CC[C@H](C)[C@@H]1NC(=O)[C@@H](NC(=O)[C@H](CCN)NC(=O)[C@@H](NC(=O)[C@H](CC(C)C)NC(C)=O)[C@@H](C)O)CCNC(=O)[C@H](Cn2cc(CCC(=O)N[C@@H](CCN)C(=O)N[C@H]3CCNC(=O)[C@H]([C@@H](C)O)NC(=O)[C@H](CCN)NC(=O)[C@H](Cc4c[nH]c5ccccc45)NC(=O)[C@H](CC(C)C)NC(=O)[C@@H](Cc4ccccc4)NC(=O)[C@H](Cc4ccc(O)cc4)NC3=O)nn2)NC(=O)[C@H](CCN)NC(=O)[C@H](CCN)NC(=O)[C@H](Cc2ccc(O)cc2)NC(=O)[C@@H](Cc2ccccc2)NC1=O [dimer 4]
CC50 (in vitro [1]): > 50 µM
CC50 (in vitro [2]): > 50 µM
IC50 [3]: > 50 µM
IC50 [4]: > 50 µM

CC(=O)N[C@@H](CCC(=O)O)C(=O)N[C@H](C(=O)N[C@@H](CCN)C(=O)N[C@H]1CCNC(=O)[C@H](Cn2cc(CC(=O)N[C@@H](CC(C)C)C(=O)N[C@H]3CCNC(=O)[C@H]([C@@H](C)O)NC(=O)[C@H](CCN)NC(=O)[C@H](CCN)NC(=O)[C@H](CC(C)C)NC(=O)[C@@H](Cc4ccccc4)NC(=O)[C@H](Cc4c[nH]c5ccccc45)NC3=O)nn2)NC(=O)[C@H](CCN)NC(=O)[C@H](CCN)NC(=O)[C@H](Cc2ccc(O)cc2)NC(=O)[C@@H](Cc2ccccc2)NC(=O)[C@H](Cc2ccc(O)cc2)NC1=O)[C@@H](C)O [dimer 7]
CC50 (in vitro [1]): > 50 µM
CC50 (in vitro [2]): > 50 µM
antiviral effect, in words [3]: a hint of antiviral effect
IC50 [3]: > 50 µM
IC50 [4]: > 50 µM

CC(=O)N[C@@H](CCC(=O)O)C(=O)N[C@H](C(=O)N[C@@H](CCN)C(=O)N[C@H]1CCNC(=O)[C@H](Cn2cc(CC(=O)N[C@@H](CCN)C(=O)N[C@H]3CCNC(=O)[C@H]([C@@H](C)O)NC(=O)[C@H](CCN)NC(=O)[C@H](Cc4c[nH]c5ccccc45)NC(=O)[C@H](CC(C)C)NC(=O)[C@@H](Cc4ccccc4)NC(=O)[C@H](Cc4c[nH]c5ccccc45)NC3=O)nn2)NC(=O)[C@H](CCN)NC(=O)[C@H](CCN)NC(=O)[C@H](CC(C)C)NC(=O)[C@@H](Cc2ccccc2)NC(=O)[C@H](Cc2ccc(O)cc2)NC1=O)[C@@H](C)O [dimer 10]
CC50 (in vitro [1]): > 50 µM
CC50 (in vitro [2]): > 50 µM
IC50 [3]: > 50 µM
IC50 [4]: > 50 µM

CC(C)C[C@@H]1NC(=O)[C@@H](Cc2ccccc2)NC(=O)[C@H](Cc2ccc(O)cc2)NC(=O)[C@@H](NC(=O)[C@@H](N)CCN)CCNC(=O)[C@H]([C@@H](C)O)NC(=O)[C@H](CCN)NC(=O)[C@H](Cc2c[nH]c3ccccc23)NC1=O [monomer 1] (H-[Dab][Dab]Y[dF]LW[Dab]T; lactam 2-C)
CC50 (in vitro [1]): > 50 µM
CC50 (in vitro [2]): > 50 µM
IC50 [3]: > 50 µM
IC50 [4]: > 50 µM

CC[C@H](C)[C@@H]1NC(=O)[C@@H](NC(=O)[C@H](CCN)NC(=O)[C@@H](NC(=O)[C@H](CC(C)C)NC(C)=O)[C@@H](C)O)CCNC(=O)[C@H](Cn2cc(CC(=O)O)nn2)NC(=O)[C@H](CCN)NC(=O)[C@H](CCN)NC(=O)[C@H](Cc2ccc(O)cc2)NC(=O)[C@@H](Cc2ccccc2)NC1=O [monomer 2]
CC50 (in vitro [1]): > 50 µM
CC50 (in vitro [2]): > 50 µM
IC50 [3]: > 50 µM
IC50 [4]: > 50 µM

CC(C)C[C@@H]1NC(=O)[C@@H](Cc2ccccc2)NC(=O)[C@H](Cc2c[nH]c3ccccc23)NC(=O)[C@@H](NC(=O)[C@@H](N)CC(C)C)CCNC(=O)[C@H]([C@@H](C)O)NC(=O)[C@H](CCN)NC(=O)[C@H](CCN)NC1=O [monomer 5] (H-L[Dab]W[dF]L[Dab][Dab]T; lactam 2-C)
CC50 (in vitro [1]): > 50 µM
CC50 (in vitro [2]): > 50 µM
IC50 [3]: > 50 µM
IC50 [4]: > 50 µM
